Counter-ions that a name gives are not always drawn. Each block holds one compound with its values, some of them ahead of it.
Columns and labels:
[1] = target: T1, serotonin reuptake sites (Rattus norvegicus, UniProt P31652); assay: Affinity for serotonin reuptake sites, [3H]-paroxetine competition; type: binding; details: rat frontal cortex membranes, read-out: pKi, serotonin reuptake sites (converted)
T1 construct: The membranes are prepared from rat frontal cortex; from tissue; host or cells: rat frontal cortex membranes
Description: The affinity was determined by competition experiments using [^3H]-paroxetine (NEN, Les Ulis, France). The membranes are prepared from rat frontal cortex and are incubated in triplicate for 2 hours at 25° C. with 1.0 nM [^3H]-paroxetine and cold ligand in a final volume of 0.4 ml. The incubation buffer contains […] TRIS-HCl (pH 7.4), 120 mM NaCl and 5 mM KCl. The non-specific binding is determined using 10 μM citalopram. At the end of the incubation, the incubation medium is filtered and washed three times with 5 ml of cooled buffer. The radioactivity retained on the filters is determined by liquid scintillation counting. The binding isotherms are analysed by non-linear regression to determine the IC50 values. Those values are converted into a dissociation constant (Ki) using the Cheng-Prusoff equation: […]
wherein L is the concentration of [^3H]-paroxetine and Kd is the dissociation constant of [^3H]-paroxetine from the serotonin reuptake site (0.13 nM). The results are expressed in pKi.

[2] = target: T2, 5-HT1A receptors (Homo sapiens, UniProt P08908); assay: Affinity for 5-HT1A receptors, [3H]-8-OH-DPAT competition; type: binding; details: membranes from CHO cells transfected with 5HT1A receptor, read-out: pKi, 5-HT1A receptor (converted)
T2 construct: expressed in transfected cells; host or cells: CHO cells
T2 sequence (P08908 1-422): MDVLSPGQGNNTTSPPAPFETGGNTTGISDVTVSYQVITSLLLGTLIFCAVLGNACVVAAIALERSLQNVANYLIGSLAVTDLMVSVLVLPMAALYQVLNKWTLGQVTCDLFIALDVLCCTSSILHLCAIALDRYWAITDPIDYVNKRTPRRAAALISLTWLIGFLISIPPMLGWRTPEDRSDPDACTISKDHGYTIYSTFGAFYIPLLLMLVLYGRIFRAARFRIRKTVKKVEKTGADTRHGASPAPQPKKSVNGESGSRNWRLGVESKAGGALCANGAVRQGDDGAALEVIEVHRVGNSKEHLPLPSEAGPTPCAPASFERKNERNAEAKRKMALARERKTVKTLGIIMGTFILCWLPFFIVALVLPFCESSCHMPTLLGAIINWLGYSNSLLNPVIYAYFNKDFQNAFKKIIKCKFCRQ
Description: The affinity was determined by competition experiments using [^3H]-8-OH-DPAT (NEN, Les Ulis, France). The membranes, prepared from CHO cells transfected with 5HT1A receptor, were prepared as described in Neuropharmacol., 1997, 36, 451-459. The membranes were incubated in triplicate for two and a half hours at 25° C. with 0.4 nM [^3H]-8-OH-DPAT and cold ligand in a final volume of 1.0 ml. The incubation buffer contains 50 mM HEPES-NaOH (pH 7.4) and 5 mM MgCl2. The non-specific binding is determined using 10 μM 5-HT. At the end of the incubation, the incubation medium is filtered through filters impregnated with 0.1% polyethyleneimine and washed three times with 5 ml of cooled buffer. The radioactivity retained on the filters is determined by liquid scintillation counting. The binding isotherms are analysed by non-linear regression to determine the IC50 values. Those values are converted into a dissociation constant (Ki) using the Cheng-Prusoff equation: […]
wherein L is the concentration of [^3H]-8-OH-DPAT and Kd is the dissociation constant of [^3H]-8-OH-DPAT from the 5HT1A receptor (0.65 nM). The results are expressed in pKi.

[3] = test system: serotonin level; assay: Microdialysis experiment in the rat (frontal cortex); type: in vivo; details: 10 mg/kg subcutaneously, cingulate frontal cortex dialysate
Description: Rats are anaesthetised with pentobarbital (60 mg/kg i.p.). They are placed in a Kopf stereotactic device and the cannula guide is implanted in the cingulate frontal cortex in accordance with the coordinates described in the Paxinos and Watson atlas (1982) as follows: AP=+2.2; L=±0.6; DV=−0.2. The rats are placed in separate cages and are not used in dialysis until 5 days later. […] The probe is perfused at a flow rate of 1 μl/min. with a solution of 147.2 mM NaCl, 4 mM KCl and 2.3 mM CaCl2 adjusted to pH 7.3 with a phosphate buffer (0.1 M). Two hours after implantation, samples are collected every 20 minutes for 4 hours. Three baseline samples are taken before administration of the products to be tested. The rats are left in their individual cages for the whole of the experiment. When the experiment is finished, the rats are decapitated and the brain is removed and frozen in isopentane. […]
The simultaneous quantification of dopamine, norepinephrine and serotonin is carried out as follows: 20 μl dialysis samples are each diluted with 20 μl of mobile phase (NaH2PO4: 75 mM; EDTA: 20 μM; sodium 1-decanesulphonate: 1 mM; methanol: 17.5%; triethylamine: 0.01%; pH: 5.7) and 33 μl samples are analysed by HPLC using a reverse phase column thermostatically maintained at 45° C. and quantified by means of a coulometric detector. […]

[4] = test system: aggressiveness in isolated mice; assay: Test of aggressiveness in isolated mice; type: in vivo; details: male CD mice, treatment 30 minutes before test
Excerpt: This test allows the evaluation of the intraspecies anti-aggressive activity of a product in mice that have been kept in isolation for several months. The test uses male CD mice (Charles River) weighing from 22 to 25 g. On their arrival, the animals are isolated in individual opaque black cages (23×14×13 cm) with a grill lid, and are housed for a prolonged period (approximately six months) in the experimentation room. The selection of aggressive pairs of mice that will be used for an extended period in the study commences after the animals have been isolated for one month. Once or twice per week a mouse from another cage (intruder) is placed in the cage of a (resident) mouse and the two animals are observed to see if they attack one another (sniffing, pursuing, nibbling, biting) during that trial. At the end of the trial (maximum duration 10 minutes), each mouse is isolated again in its own cage. If attacks have occurred, the same pair will be tested again in the next trial; if there have been no attacks, each mouse of that pair will be placed in the presence of another mouse in the subsequent trial. Thus, in the course of successive trials carried out at a rate of 1 or 2 per week, definitive pairs of mice that will be used for the experiments are selected. […] The latent period (in seconds) of the first attack and the number and total duration (in seconds) of the attacks are recorded. […]

[5] = test system: marble-burying behaviour of mice; assay: Marble-burying test in mice; type: in vivo; details: male NMRI mice, 30 minutes' exploration
Excerpt: This test enables evaluation of the capacity of pharmacological agents to inhibit the spontaneous marble-burying behaviour of mice, the inhibition being predictive of antidepressant and/or anti-impulsive action. Male mice of the NMRI strain (Iffa-Credo, 1'Arbresle, France) weighing from 20 to 25 g on the day of the experiment are placed individually in Macrolon boxes (30×18×19 cm) containing 5 cm of sawdust and covered with a perforated plexiglass plate. Twenty four “tiger's eye” glass marbles are evenly distributed on the sawdust at the periphery of the box. At the end of 30 minutes' free exploration, the animals are removed from the box and the number of buried marbles is counted.

T1 sequence (P31652 whole entry): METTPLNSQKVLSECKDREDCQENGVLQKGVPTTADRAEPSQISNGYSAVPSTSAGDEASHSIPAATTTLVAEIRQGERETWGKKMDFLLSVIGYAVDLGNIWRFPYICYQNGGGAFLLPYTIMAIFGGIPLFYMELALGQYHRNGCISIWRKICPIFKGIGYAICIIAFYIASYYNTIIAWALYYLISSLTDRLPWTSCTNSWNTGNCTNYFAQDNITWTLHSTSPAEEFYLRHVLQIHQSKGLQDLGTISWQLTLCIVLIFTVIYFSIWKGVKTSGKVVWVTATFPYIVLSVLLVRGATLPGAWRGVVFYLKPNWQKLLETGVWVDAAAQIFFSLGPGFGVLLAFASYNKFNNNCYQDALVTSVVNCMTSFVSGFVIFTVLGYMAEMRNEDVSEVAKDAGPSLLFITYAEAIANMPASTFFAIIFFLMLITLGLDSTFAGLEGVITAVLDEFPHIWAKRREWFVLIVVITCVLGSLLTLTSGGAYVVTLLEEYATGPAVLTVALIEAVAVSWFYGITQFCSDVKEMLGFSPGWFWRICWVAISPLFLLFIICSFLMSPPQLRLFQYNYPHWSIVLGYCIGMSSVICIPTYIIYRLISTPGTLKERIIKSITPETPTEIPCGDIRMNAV

melting point: 175 to 181 °C
SMILES: c1ccc2cc(CCN3CCN(c4nccc5ccoc45)CC3)ccc2c1 (as salt: fumarate) [Example 30, 7-{4-[2-(2-Naphthyl)ethyl]-1-piperazinyl}furo[2,3-c]pyridine]

Ki [1]: < 0.0316 µM
Ki [2]: < 0.0316 µM
SMILES: c1ccc2c(CCN3CCC(c4nccc5occc45)CC3)cccc2c1 [Example 7, 4-{1-[2-(1-Naphthyl)ethyl]-4-piperidinyl}furo[3,2-c]pyridine]
increase of the level of serotonin (maximum % of the effect compared with the baseline level defined as 0%) [3]: 140.5±15.2%
Inhibitory Dose 50, aggressiveness in isolated mice [4]: less than 1.5 mg/kg i.p.
Marble-burying in mice, ID50 [5]: 1.64 mg/kg s.c.

SMILES: c1cc2occc2c(N2CCN(CCc3ccc4c(c3)CCO4)CC2)n1 [Example 11, 4-{4-[2-(2,3-Dihydrobenzofuran-5-yl)ethyl]-1-piperazinyl}furo[3,2-c]pyridine]
Marble-burying in mice, ID50 [5]: 0.94 mg/kg s.c.

SMILES: CNCCC(Oc1ccc(C(F)(F)F)cc1)c1ccccc1 (centres unmarked) [fluoxetine, reference compound]
Marble-burying in mice, ID50 [5]: 8.03 mg/kg s.c.
